What was measured:
[1] = Second experiment: ^13C-labelled compounds once daily for 4 successive days, ^13C/^12C ratio in breath and hair, metabolic model; details: oral once daily for 4 days; for Rr, recovery ratio of administered ^13C / dB, distribution ratio of ^13C into breath pathway to administered ^13C / dBf, distribution ratio into fast compartment of breath pathway / dO, distribution ratio of ^13C into other* pathway (hair) to administered ^13C / dOf, distribution ratio into fast compartment of other* pathway / kBf, excretion rate constant, fast compartment, breath pathway / kBs, excretion rate constant, slow compartment, breath pathway / kOf, excretion rate constant, fast compartment, other* pathway / kOs, excretion rate constant, slow compartment, other* pathway: mean
Text: The rate of ^13C excretion for each pathway (Em, g d^−1) is given by the following equations:1 Em=∑nkmndmdmnkm/km−kmn(e^−kmnt−e^−kmt) where, m is the excretion pathway symbol of B, U, F, and O corresponding to the excretion pathways of breath, urine, faeces, and other*, respectively; n is the symbol of f and s corresponding to the compartments with fast and slow metabolism, respectively; km and kmn are the excretion rate constants from compartment Cm and Cmn, respectively; dm is the distribution ratio of ^13C into compartment Cm to the administered ^13C; dmn is the distribution ratio of ^13C into compartment Cmn to ^13C from compartment Cm; Rr is the recovery ratio of administered ^13C. The sum of distribution ratios of compartments with fast and slow metabolism was fixed to unity (i.e. dBf + dBs = 1).
Additional doses of ^13C-labelled compounds were administered on day 160 for marking the ^13C/^12C ratio of hair samples and the volunteers freely ate meals without calorific restrictions.
In the first experiment, breath, urine, faeces, and hair samples were periodically collected and the ^13C/^12C ratio was analysed following the procedure described in a previous paper. […] Faecal samples were collected once before day 0 and at every defecation from day 0 to 14. On day 0, additional breath and urine samples were collected frequently after administration. […] According to the section number of the two peaks, the experimental date for each section between the two peaks was determined under an assumption of uniform hair growth.
Some volunteers also dropped out of the sampling procedure for various reasons.
The detailed procedures used were described in a previous published paper. When urine and hair samples had no increase phase, the values of kU and kO were fixed to those of kB obtained from the same volunteers in the regression analysis.

[2] = design: method as in doi:10.1093/oxfordjournals.rpd.a032384; details: rats, 100 days after administration; cited from earlier work
[3] = design: method as in PMID 14371643; details: intravenous administration; cited from earlier work
[4] = 50-year cumulative body burden and committed effective dose / dose coefficient calculated with the metabolic models; design: species or system human; details: orally ingested 1 g of ^13C
Text: The dose coefficients obtained with each assumption are called non conservative estimation (ER) and conservative estimation (EC) hereafter. The recovered fraction was assumed to be distributed uniformly in the whole-body carbon with a tissue weighting factor of unity. […] In addition to these estimations, we calculated the most conservative estimation (EX) adopting the tissue weighting factor of unity for unrecovered carbon. We solely adopted the value for the maximal estimation.
The 50-year cumulative body burden of ^14C after a single ingestion of 1 Bq of ^14C in each compound (BC Bq d) was calculated using the metabolic model and its parameters described above, under the assumption of the same metabolic behaviour of ^13C and ^14C. […] The total cumulative burden was derived as a sum of burdens from the recoverable and unrecoverable fractions with designated proportions Rr and 1−Rr, respectively. For the recoverable fraction, the burden was calculated using following equation:2 BC≈∑mdm/km+∑m∑ndmdmn/kmn where, every dm was divided by Rr when Rr was larger than unity.
The 50-year committed effective dose (Sv) from ingestion of 1 Bq ^14C was calculated from the 50-year cumulative burden by using the ratio of absorbed dose to ^14C radioactivity, radiation weighting factor of beta-ray from ^14C (1.0) and tissue weighting factors. […]

NCC(=O)O [Glycine, glycine]
Rr, recovery ratio of administered ^13C ([1]; All (both sexes)): 1.0 | dB, distribution ratio of ^13C into breath pathway to administered ^13C ([1]; All (both sexes)): 0.80 | dBf, distribution ratio into fast compartment of breath pathway ([1]; All (both sexes)): 0.36 | dO, distribution ratio of ^13C into other* pathway (hair) to administered ^13C ([1]; All (both sexes)): 0.18 | dOf, distribution ratio into fast compartment of other* pathway ([1]; All (both sexes)): 0.50 | kBf, excretion rate constant, fast compartment, breath pathway ([1]; All (both sexes)): 11 day⁻¹ | kBs, excretion rate constant, slow compartment, breath pathway ([1]; All (both sexes)): 0.17 day⁻¹ | kOf, excretion rate constant, fast compartment, other* pathway ([1]; All (both sexes)): 0.10 day⁻¹ | kOs, excretion rate constant, slow compartment, other* pathway ([1]; All (both sexes)): 0.0086 day⁻¹ | Rr, recovery ratio of administered ^13C ([1]; Female): 1.0 | dB, distribution ratio of ^13C into breath pathway to administered ^13C ([1]; Female): 0.84 | dBf, distribution ratio into fast compartment of breath pathway ([1]; Female): 0.36 | dO, distribution ratio of ^13C into other* pathway (hair) to administered ^13C ([1]; Female): 0.18 | dOf, distribution ratio into fast compartment of other* pathway ([1]; Female): 0.52 | kBf, excretion rate constant, fast compartment, breath pathway ([1]; Female): 11 day⁻¹ | kBs, excretion rate constant, slow compartment, breath pathway ([1]; Female): 0.18 day⁻¹ | kOf, excretion rate constant, fast compartment, other* pathway ([1]; Female): 0.098 day⁻¹ | kOs, excretion rate constant, slow compartment, other* pathway ([1]; Female): 0.0091 day⁻¹ | Rr, recovery ratio of administered ^13C ([1]; Male): 0.93 | dB, distribution ratio of ^13C into breath pathway to administered ^13C ([1]; Male): 0.74 | dBf, distribution ratio into fast compartment of breath pathway ([1]; Male): 0.37 | dO, distribution ratio of ^13C into other* pathway (hair) to administered ^13C ([1]; Male): 0.18 | dOf, distribution ratio into fast compartment of other* pathway ([1]; Male): 0.47 | kBf, excretion rate constant, fast compartment, breath pathway ([1]; Male): 9.7 day⁻¹ | kBs, excretion rate constant, slow compartment, breath pathway ([1]; Male): 0.16 day⁻¹ | kOf, excretion rate constant, fast compartment, other* pathway ([1]; Male): 0.11 day⁻¹ | kOs, excretion rate constant, slow compartment, other* pathway ([1]; Male): 0.0080 day⁻¹ | estimated distribution ratio of ^13C for the breath pathway (dB) ([1]; mean ± S.D., both sexes): 80 ± 9%

CCCCCCCC/C=C\CCCCCCCC(=O)O [^14C-labelled oleic acid, oleic acid]
^14C concentration in adipose tissue relative to that of palmitic acid [2]: three times higher

N[14CH2]C(=O)O [glycine-[2-^14C]]
recovery through the breath pathway [3]: 86%

CCCCCCCCCCCCCCCC(=O)O [palmitic acid]
contribution of faeces pathway to 50-year cumulative body burden [4]: 0.034 ± 0.070% | contribution of urine pathway to 50-year cumulative body burden [4]: 0.038 ± 0.030%
